Assay results reported in ChEMBL document CHEMBL1201861, “Genomics of Drug Sensitity in Cancer screening data, Wellcome Trust Sanger Institute”.

How the values were obtained:
Assay in all cases: cells
CTV-1 = format: functional, cell-based; conditions: Homo sapiens
Description: SANGER: Inhibition of human CTV-1 cell growth in a cell viability assay.

DK-MG = format: functional, cell-based, Homo sapiens; conditions: Homo sapiens, DK-MG
Description: SANGER: Inhibition of human DK-MG cell growth in a cell viability assay.

DOK = format: functional, cell-based, Homo sapiens; conditions: Homo sapiens, DOK
Description: SANGER: Inhibition of human DOK cell growth in a cell viability assay.

G-402 = format: functional, cell-based, Homo sapiens; conditions: Homo sapiens, G-402
Description: SANGER: Inhibition of human G-402 cell growth in a cell viability assay.

GCT = format: functional, cell-based, Homo sapiens; conditions: Homo sapiens, GCT
Description: SANGER: Inhibition of human GCT cell growth in a cell viability assay.

H4 = format: functional, cell-based; conditions: Homo sapiens
Description: SANGER: Inhibition of human H4 cell growth in a cell viability assay.

HAL-01 = format: functional, cell-based; conditions: Homo sapiens
Description: SANGER: Inhibition of human HAL-01 cell growth in a cell viability assay.

HCC1395 = format: functional, cell-based, Homo sapiens; conditions: Homo sapiens, HCC1395
Description: SANGER: Inhibition of human HCC1395 cell growth in a cell viability assay.

HCC1806 = format: functional, cell-based, Homo sapiens; conditions: Homo sapiens, HCC1806
Description: SANGER: Inhibition of human HCC1806 cell growth in a cell viability assay.

HH = format: functional, cell-based; conditions: Homo sapiens
Description: SANGER: Inhibition of human HH cell growth in a cell viability assay.

HuCCT-1 = format: functional, cell-based, Homo sapiens, HuCCT1; conditions: Homo sapiens, HuCCT-1
Description: SANGER: Inhibition of human HuCCT1 cell growth in a cell viability assay.

HuP-T4 = format: functional, cell-based, Homo sapiens; conditions: Homo sapiens, HuP-T4
Description: SANGER: Inhibition of human HuP-T4 cell growth in a cell viability assay.

IA-LM = format: functional, cell-based, Homo sapiens; conditions: Homo sapiens, IA-LM
Description: SANGER: Inhibition of human IA-LM cell growth in a cell viability assay.

IST-SL1 = format: functional, cell-based, Homo sapiens; conditions: Homo sapiens, IST-SL1
Description: SANGER: Inhibition of human IST-SL1 cell growth in a cell viability assay.

JAR = format: functional, cell-based, Homo sapiens; conditions: Homo sapiens, JAR
Description: SANGER: Inhibition of human JAR cell growth in a cell viability assay.

KARPAS-299 = format: functional, cell-based; conditions: Homo sapiens
Description: SANGER: Inhibition of human KARPAS-299 cell growth in a cell viability assay.

KM-H2 = format: functional, cell-based; conditions: Homo sapiens
Description: SANGER: Inhibition of human KM-H2 cell growth in a cell viability assay.

KM12 = format: functional, cell-based, Homo sapiens; conditions: Homo sapiens, KM12
Description: SANGER: Inhibition of human KM12 cell growth in a cell viability assay.

KOSC-2 = format: functional, cell-based, Homo sapiens; conditions: Homo sapiens, KOSC-2
Description: SANGER: Inhibition of human KOSC-2 cell growth in a cell viability assay.

KS-1 = format: functional, cell-based, Homo sapiens; conditions: Homo sapiens, KS-1
Description: SANGER: Inhibition of human KS-1 cell growth in a cell viability assay.

KU812 cell line = format: functional, cell-based; conditions: Homo sapiens
Description: SANGER: Inhibition of human KU812 cell growth in a cell viability assay.

LAMA-84 = format: functional, cell-based; conditions: Homo sapiens
Description: SANGER: Inhibition of human LAMA-84 cell growth in a cell viability assay.

LS-411N = format: functional, cell-based, Homo sapiens; conditions: Homo sapiens, LS-411N
MC116 = format: functional, cell-based; conditions: Homo sapiens
Description: SANGER: Inhibition of human MC116 cell growth in a cell viability assay.

MEL-HO = format: functional, cell-based, Homo sapiens; conditions: Homo sapiens, MEL-HO
Description: SANGER: Inhibition of human MEL-HO cell growth in a cell viability assay.

MFM-223 = format: functional, cell-based, Homo sapiens; conditions: Homo sapiens, MFM-223
Description: SANGER: Inhibition of human MFM-223 cell growth in a cell viability assay.

MG-63 = format: functional, cell-based, Homo sapiens; conditions: Homo sapiens, MG-63
Description: SANGER: Inhibition of human MG-63 cell growth in a cell viability assay.

NB7 = format: functional, cell-based; conditions: Homo sapiens
Description: SANGER: Inhibition of human NB7 cell growth in a cell viability assay.

NCI-H1581 = format: functional, cell-based, Homo sapiens; conditions: Homo sapiens, NCI-H1581
Description: SANGER: Inhibition of human NCI-H1581 cell growth in a cell viability assay.

NCI-H727 = format: functional, cell-based, Homo sapiens; conditions: Homo sapiens, NCI-H727
Description: SANGER: Inhibition of human NCI-H727 cell growth in a cell viability assay.

NTERA-2-cl-D1 = format: functional, cell-based, Homo sapiens; conditions: Homo sapiens, NTERA-2-cl-D1
Description: SANGER: Inhibition of human NTERA-S-cl-D1 cell growth in a cell viability assay.

OCI-AML2 = format: functional, cell-based; conditions: Homo sapiens
Description: SANGER: Inhibition of human OCI-AML2 cell growth in a cell viability assay.

OMC-1 = format: functional, cell-based, Homo sapiens; conditions: Homo sapiens, OMC-1
Description: SANGER: Inhibition of human OMC-1 cell growth in a cell viability assay.

OVCAR-4 = format: functional, cell-based, Homo sapiens; conditions: Homo sapiens, OVCAR-4
Description: SANGER: Inhibition of human OVCAR-4 cell growth in a cell viability assay.

RPMI-7951 = format: functional, cell-based, Homo sapiens; conditions: Homo sapiens, RPMI-7951
Description: SANGER: Inhibition of human RPMI-7951 cell growth in a cell viability assay.

RT-112 = format: functional, cell-based, Homo sapiens; conditions: Homo sapiens, RT-112
Description: SANGER: Inhibition of human RT-112 cell growth in a cell viability assay.

SK-NEP-1 = format: functional, cell-based; conditions: Homo sapiens
Description: SANGER: Inhibition of human SK-NEP-1 cell growth in a cell viability assay.

SK-OV-3 = format: functional, cell-based, Homo sapiens; conditions: Homo sapiens, SK-OV-3
Description: SANGER: Inhibition of human SK-OV-3 cell growth in a cell viability assay.

SW1783 = format: functional, cell-based; conditions: Homo sapiens
Description: SANGER: Inhibition of human SW1783 cell growth in a cell viability assay.

697 = format: functional, cell-based; conditions: Homo sapiens
Description: SANGER: Inhibition of human 697 cell growth in a cell viability assay.

A204 = format: functional, cell-based, Homo sapiens; conditions: Homo sapiens, A204
Description: SANGER: Inhibition of human A204 cell growth in a cell viability assay.

A-375 = format: functional, cell-based, Homo sapiens; conditions: Homo sapiens, A-375
Description: SANGER: Inhibition of human A375 cell growth in a cell viability assay.

A-431 = format: functional, cell-based, Homo sapiens; conditions: Homo sapiens, A-431
Description: SANGER: Inhibition of human A431 cell growth in a cell viability assay.

BE-13 = format: functional, cell-based; conditions: Homo sapiens
Description: SANGER: Inhibition of human BE-13 cell growth in a cell viability assay.

BEN = format: functional, cell-based, Homo sapiens; conditions: Homo sapiens, BEN
Description: SANGER: Inhibition of human BEN cell growth in a cell viability assay.

BFTC-905 = format: functional, cell-based, Homo sapiens; conditions: Homo sapiens, BFTC-905
Description: SANGER: Inhibition of human BFTC-905 cell growth in a cell viability assay.

CAL-33 = format: functional, cell-based, Homo sapiens; conditions: Homo sapiens, CAL-33
Description: SANGER: Inhibition of human CAL-33 cell growth in a cell viability assay.

CAL-85-1 = format: functional, cell-based; conditions: Homo sapiens
Description: SANGER: Inhibition of human CAL-85-1 cell growth in a cell viability assay.

TE-10 = format: functional, cell-based, Homo sapiens; conditions: Homo sapiens, TE-10
Description: SANGER: Inhibition of human TE-10 cell growth in a cell viability assay.

U-87 MG = format: functional, cell-based, U-87MG ATCC; conditions: Homo sapiens
Description: SANGER: Inhibition of human U-87-MG cell growth in a cell viability assay.

UO-31 = format: functional, cell-based; conditions: Homo sapiens
Description: SANGER: Inhibition of human U031 cell growth in a cell viability assay.

UACC-257 = format: functional, cell-based, Homo sapiens; conditions: Homo sapiens, UACC-257
Description: SANGER: Inhibition of human UACC-257 cell growth in a cell viability assay.

CAMA-1 = format: functional, cell-based, Homo sapiens; conditions: Homo sapiens, CAMA-1
Description: SANGER: Inhibition of human CAMA-1 cell growth in a cell viability assay.

## COc1ccc(-c2ccc3c(N4CCOC[C@@H]4C)nc(N4CCOC[C@@H]4C)nc3n2)cc1CO [AZD-8055]
CTV-1
  IC50: 86.4 nM
DK-MG
  IC50: > 2000 nM
DOK
  IC50: 513 nM
G-402
  IC50: 99.8 nM
GCT
  IC50: 1340 nM
H4
  IC50: 601 nM
HAL-01
  IC50: 203 nM
HCC1395
  IC50: > 2000 nM
HCC1806
  IC50: 933 nM
HH
  IC50: 80.1 nM
HuCCT-1
  IC50: > 2000 nM
HuP-T4
  IC50: 1490 nM
IA-LM
  IC50: 596 nM
IST-SL1
  IC50: > 2000 nM
JAR
  IC50: > 2000 nM
KARPAS-299
  IC50: > 2000 nM
KM-H2
  IC50: 1560 nM
KM12
  IC50: 1800 nM
KOSC-2
  IC50: 1080 nM
KS-1
  IC50: 1250 nM
KU812 cell line
  IC50: 80.4 nM
LAMA-84
  IC50: 180 nM
LS-411N
  IC50: 1150 nM
MC116
  IC50: > 2000 nM
MEL-HO
  IC50: 678 nM
MFM-223
  IC50: 426 nM
MG-63
  IC50: 274 nM
NB7
  IC50: > 2000 nM
NCI-H1581
  IC50: 190 nM
NCI-H727
  IC50: > 2000 nM
NTERA-2-cl-D1
  IC50: 701 nM
OCI-AML2
  IC50: > 2000 nM
OMC-1
  IC50: 727 nM
OVCAR-4
  IC50: 819 nM
RPMI-7951
  IC50: 735 nM
RT-112
  IC50: 849 nM
SK-NEP-1
  IC50: 625 nM
SK-OV-3
  IC50: 672 nM
SW1783
  IC50: > 2000 nM
697
  IC50: 274 nM
A204
  IC50: 190 nM
A-375
  IC50: 752 nM
A-431
  IC50: 831 nM
BE-13
  IC50: 1120 nM
BEN
  IC50: 213 nM
BFTC-905
  IC50: 621 nM
CAL-33
  IC50: 865 nM
CAL-85-1
  IC50: 1530 nM
TE-10
  IC50: > 2000 nM
U-87 MG
  IC50: > 2000 nM
UO-31
  IC50: > 2000 nM
UACC-257
  IC50: > 2000 nM
CAMA-1
  IC50: 622 nM

## Nc1ccn([C@@H]2O[C@H](CO)[C@@H](O)[C@@H]2O)c(=O)n1 [CYTARABINE]
CTV-1
  IC50: 84.7 nM
DK-MG
  IC50: > 2000 nM
DOK
  IC50: 904 nM
G-402
  IC50: 650 nM
GCT
  IC50: 856 nM
H4
  IC50: 274 nM
HAL-01
  IC50: 328 nM
HCC1395
  IC50: > 2000 nM
HCC1806
  IC50: 191 nM
HH
  IC50: > 2000 nM
HuCCT-1
  IC50: > 2000 nM
HuP-T4
  IC50: 237 nM
IA-LM
  IC50: > 2000 nM
IST-SL1
  IC50: > 2000 nM
JAR
  IC50: 338 nM
KARPAS-299
  IC50: > 2000 nM
KM-H2
  IC50: > 2000 nM
KM12
  IC50: > 2000 nM
KOSC-2
  IC50: 643 nM
KS-1
  IC50: > 2000 nM
KU812 cell line
  IC50: > 2000 nM
LAMA-84
  IC50: 335 nM
LS-411N
  IC50: 695 nM
MC116
  IC50: 1280 nM
MEL-HO
  IC50: > 2000 nM
MFM-223
  IC50: > 2000 nM
MG-63
  IC50: > 2000 nM
NB7
  IC50: 1520 nM
NCI-H1581
  IC50: 1770 nM
NCI-H727
  IC50: > 2000 nM
NTERA-2-cl-D1
  IC50: 159 nM
OCI-AML2
  IC50: 545 nM
OMC-1
  IC50: 832 nM
OVCAR-4
  IC50: > 2000 nM
RPMI-7951
  IC50: 340 nM
RT-112
  IC50: 502 nM
SK-NEP-1
  IC50: > 2000 nM
SK-OV-3
  IC50: > 2000 nM
SW1783
  IC50: > 2000 nM
697
  IC50: 10.6 nM
A204
  IC50: 311 nM
A-375
  IC50: 396 nM
A-431
  IC50: > 2000 nM
BE-13
  IC50: 825 nM
BEN
  IC50: > 2000 nM
BFTC-905
  IC50: 108 nM
CAL-33
  IC50: 1180 nM
CAL-85-1
  IC50: > 2000 nM
TE-10
  IC50: > 2000 nM
U-87 MG
  IC50: 1740 nM
UO-31
  IC50: 1250 nM
UACC-257
  IC50: > 2000 nM
CAMA-1
  IC50: > 2000 nM
